Test results as given in patent US20200197392A1, “COMPOSITIONS AND METHODS FOR TREATING TUBEROUS SCLEROSIS COMPLEX” (THE BRIGHAM & WOMEN'S HOSPITAL, INC., priority 2017, published 2020).
Like-named read-outs stand apart in the source and are kept apart here.

Key:
[1] = system: HCV29 cells; conditions: 30 nM THZ1, 1 mM GSH
[2] = system: TSC-null cells; test: Antioxidant rescue of THZ1-induced cell death (Trypan blue); type: cell-based; conditions: THZ1 30 nM, NAC 2 mM or GSH-MEE 2 mM, 48 hr
From the text: (§1) FIGS. 8A-8G. Reduction of glutathione and increase in ROS in THZ1-treated TSC null cells. […] Arrow indicates glutathione. (n=3 samples) (FIG. 8B) Heat map showing the top 15 metabolites with greatest change in 621.101.TSC2− cells, with comparison to control and similarly-treated 621.101.TSC2-addback cells (n=3 samples). The scale is log 2 fold-change. […] Each data point represents the mean±SEM of three independent experiments (** p<0.01; *** p<0.001). […] Each data point represents the mean±SEM of three independent experiments (* p<0.05; ** p<0.01; *** p<0.001). […] Phase contrast images are at top. Cell death (%) is shown at bottom for these treatments as well as RAP (rapamycin 20 nM) and NAC (2 mM) for HCV.29.TSC1− and 621-101.TSC2− after 48 hours of treatment, measured by Trypan blue staining. Each data point represents the mean±SEM of three independent experiments (* p<0.05; ** p<0.01; *** p<0.001).
FIGS. 9A-9C. […] (n=3 samples,*** p<0.0005). […] Each data point represents the mean±SEM of three independent experiments (** p<0.01; *** p<0.001). (FIG. 9C) Cell death of MEF.TSC2− after 48 hours of treatment with indicated compounds was measured via Trypan blue staining assay. Each data point represents the mean±SEM of three independent experiments (* p<0.05; *** p<0.001). […]

[3] = system: TSC-null cells; test: ROS levels in TSC-null cells; type: cell-based; conditions: NAC 2 mM + THZ1 30 nM, 48 hr
From the text: as §1
As GSH is the major intracellular antioxidant […], reactive oxygen species (ROS) were next measured in these cells.
In addition, to examine whether glutathione depletion was the proximate cause of apoptosis in THZ1-treated TSC-null cells, cells were treated with GSH reduced ethyl ester (GSH-MEE), a membrane-permeable derivative of GSH.

[4] = system: tumors in a TSC mouse model; test: SY-1365 in a TSC mouse model; type: in vivo; conditions: tail vein injection 2×/week at 40 mg/kg for 4 weeks
Protocol: FIG. 16. Effect of SY-1365 on tumor volume in a TSC mouse model. SY-1365 was administered by tail vein injection 2×/week at 40 mg/kg for 4 weeks. Mice were then sacrificed and tumor assessment performed based on histology.

[5] = target: T1, CDK7 (Homo sapiens, UniProt P50613); conditions: cited from earlier work
[6] = compared to THZ1; cited from earlier work
[7] = target: T1, CDK7; conditions: read-out: cellular IC50; cited from earlier work
[8] = system: TSC1-HCV29 cells; test: Apoptosis by flow cytometry, propidium iodide and Annexin V; type: cell-based, human; conditions: 30 nM, 72 h
From the text: (§2) FIGS. 2A-2B. […] Apoptosis was monitored by flow cytometry using FITC-Annexin V. Each data point represents the mean±SEM of three independent experiments. *** p<0.001 (FIG. 2B) Immunoblot analyses of caspase-3 and actin.

[9] = system: HCV29 cells; test: as above; type: cell-based, human; conditions: 30 nM, 72 h
From the text: as §2

[10] = system: HCV29 xenograft tumors; test: HCV29 xenograft tumors in Foxn1nu mice (Example 1); type: in vivo; conditions: 10 mg/kg IP twice daily, 30 days
From the text: FIG. 3. […] Treatment groups are indicated. […] Caliper measurements were used to calculate tumor volume.
HCV29 xenograft tumors were induced in immune-deficient Foxn1^nu mice by injection of 10^7 cells into each flank. […] Tumor size was monitored using calipers.

[11] = system: HCV.29-TSC1− xenograft tumors; test: HCV29-TSC1- xenograft model (Example 2); type: in vivo, mice; conditions: THZ1 10 mg/kg IP twice a day, rapamycin 3 mg/kg IP 3 days per week, or both
Protocol: FIGS. 14A-14D. […] Tumor size was measured every 3rd day using a digital caliper. […] This was quantified by counting four to six random fields per section. Scale bar=50 μm. **p<0.01, ***p<0.001. […] This was quantified by counting four to six random fields per section. Scale bar 50 μm. not shown (n=6) ***p<0.001. (FIG. 14D) Diagram showing glutathione synthetic pathway and ROS generation in TSC mutant cells. Top, TSC-deficient cells have hyperactive mTORC1, leading to increased ROS, NRF2 induction, and an increase in transcription of glutathione synthetic genes to yield more glutathione to buffer the increased ROS.
FIGS. 15A-15C. (FIG. 15A) Average body weight of TSC1-deficient HCV.29 xenograft mice in each treatment group. […] (n=4 tumors per group). ***p<0.001.
Tumor volumes were measured by calipers. […] Finally, in a cohort of xenograft mice, the treatments were discontinued and tumor growth was observed without intervention after the one month of treatment.

[12] = system: TSC-null cell lines; test: 96 well plate growth assay, TSC-null cell lines; type: cell-based; conditions: 120 h, 6 cell line pairs, 5 days
Protocol: (§3) FIGS. 4A-4F. […] Cell number was calculated by measurement of dsDNA content using PicoGreen after 5 days in 96-well plate assays. Each data point represents the mean of 4 measurements. SEM are indicated. […] Apoptotic cell death was quantified by propidium iodide (PI) staining and flow cytometry, and is shown as the percentage of cells that were PI positive. Each data point represents the mean±SEM of three independent experiments. * p<0.05; ** p<0.01; *** p<0.001. […] Beta-actin serves as a loading control.
(§4) FIGS. 5A-5D. […] Beta-actin serves as a loading control. […] Apoptotic cells were quantified by propidium iodide (PI) staining and flow cytometry. Each data point represents the mean±SEM of three independent experiments. * p<0.05; ** p<0.01; *** p<0.001. […] Beta-actin serves as a loading control.

[13] = system: HCV29 cells; test: RNA-Seq gene expression, HCV29 vs TSC1-HCV29; type: cell-based, human; conditions: 30 nM THZ1-treated HCV29 vs THZ1-treated TSC1-HCV29, 6 hours
From the text: However, the inventors focused on expression of all genes involved in the synthesis of reduced glutathione.

[14] = system: kidney cystadenomas in Tsc2+/− A/J strain mice; conditions: THZ1 10 mg/kg IP twice a day 29 days; rapamycin 3 mg/kg 3 times per week
From the text: FIGS. 12A-12F. […] (FIG. 12A) Experimental plan. Tsc2+/− A/J strain mice develop kidney cystadenomas with 100% penetrance by 4 months of age with progressive tumor development. […] (FIG. 12B) Number of tumors per kidney in each treatment group (n=kidney number). ***p<0.001. (FIG. 12C) Tumor volume per kidney, with each data point corresponding to one kidney. (FIG. 12D) Renal cystadenoma histology in the treated mice. Representative tumor images are shown for each treatment cohort. Cystadenomas and tumors each are shown at 100×. […] (FIG. 12E) Ki-67 staining to assess cell proliferation in kidney sections from the treated mice. All images are at 100× magnification. Percentage of tumor cells with nuclear immunoreactivity of Ki-67 was scored from six random fields per section. ***p<0.001.
FIGS. 13A-13B. […]
Tsc2+/− A/J strain mice develop kidney cystadenomas by 4 months of age, and provide a native in vivo model that is […] human TSC patients, and is driven by spontaneous second hit events that lead to complete loss of Tsc2 expression and mTORC1 activation (Auricchio et al., 2012; Guo and Kwiatkowski, 2013; Woodrum et al., 2010). […] Rapamycin was dramatically effective in reducing tumor volume by about 99%, as assessed semi-quantitatively on H&E-stained sections (FIG. 12C), similar to what we have seen previously (Guo and Kwiatkowski, 2013). […]

[15] = system: HCV29 cells; test: Steady state metabolite analysis; type: cell-based, human; conditions: 30 nM, 48 h
[16] = system: HCV29 cells; test: ROS levels; type: cell-based, human; conditions: THZ1 30 nM, rapamycin 20 nM or both
[17] = system: 621-101 cells (TSC2 null angiomyolipoma cell line); test: 96-well plate proliferation assay (PicoGreen dsDNA); type: cell-based; conditions: 96 h; 621-101, 4 days; read-out: IC50, inhibition of proliferation
Protocol: (§5) FIG. 1. THZ1 selectively targets TSC-deficient cells. […] Cell viability was assessed after 4 days of treatment using Quant-it PicoGreen dsDNA. Data is represented as mean±SD.
(§6) Multiple studies were performed that support these hypotheses. Most studies to date have been performed on two pairs of cell lines: (i) HCV29, a TSC1 null human bladder cancer cell line, and a corresponding TSC1 addback derivative (TSC1-HCV29), and (ii) 621-101, a TSC2 null angiomyolipoma cell line, and the TSC2 addback derivative […].

[18] = system: HCV29 cells (TSC1 null bladder cancer cell line); test: as above; type: cell-based; conditions: Homo sapiens, HCV-29, 96 h; HCV29, 4 days; read-out: IC50, inhibition of proliferation
Protocol: as §5, §6

[19] = system: HCV29 cells; test: Cell cycle flow cytometry; type: cell-based, human; conditions: 30 nM, 24 h
[20] = system: TSC-addback cell lines; test: 96 well plate growth assay, TSC-addback cell lines; type: cell-based; conditions: 120 h, 6 cell line pairs, 5 days
Protocol: as §3, §4

[21] = system: TSC1-HCV29 cells; test: Cell cycle flow cytometry; type: cell-based, human; conditions: 30 nM, 24 h
[22] = system: TSC null cells; test: NRF2, GCLC, GCLM, GSR protein expression; type: cell-based; conditions: 24 hours after THZ1 treatment

T1 sequence (P50613 whole entry): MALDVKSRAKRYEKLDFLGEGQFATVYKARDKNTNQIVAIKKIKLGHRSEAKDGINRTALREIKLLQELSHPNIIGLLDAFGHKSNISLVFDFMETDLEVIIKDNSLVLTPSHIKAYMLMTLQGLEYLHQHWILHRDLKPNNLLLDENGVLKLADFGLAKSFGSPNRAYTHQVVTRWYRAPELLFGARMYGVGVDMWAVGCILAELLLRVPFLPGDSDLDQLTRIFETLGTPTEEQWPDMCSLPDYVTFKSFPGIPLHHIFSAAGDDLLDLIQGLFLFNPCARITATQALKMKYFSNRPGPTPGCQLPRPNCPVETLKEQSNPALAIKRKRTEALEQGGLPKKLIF
T1 sequence (P51946 whole entry partner): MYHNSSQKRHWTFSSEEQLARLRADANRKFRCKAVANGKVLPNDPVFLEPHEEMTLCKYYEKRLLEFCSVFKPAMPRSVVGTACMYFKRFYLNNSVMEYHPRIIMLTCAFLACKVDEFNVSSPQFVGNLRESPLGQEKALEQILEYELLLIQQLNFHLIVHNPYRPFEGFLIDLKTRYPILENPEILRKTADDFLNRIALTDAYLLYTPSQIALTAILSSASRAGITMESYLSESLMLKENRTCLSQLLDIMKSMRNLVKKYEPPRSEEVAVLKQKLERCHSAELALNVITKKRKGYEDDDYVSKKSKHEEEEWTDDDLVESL
T1 sequence (P51948 whole entry partner): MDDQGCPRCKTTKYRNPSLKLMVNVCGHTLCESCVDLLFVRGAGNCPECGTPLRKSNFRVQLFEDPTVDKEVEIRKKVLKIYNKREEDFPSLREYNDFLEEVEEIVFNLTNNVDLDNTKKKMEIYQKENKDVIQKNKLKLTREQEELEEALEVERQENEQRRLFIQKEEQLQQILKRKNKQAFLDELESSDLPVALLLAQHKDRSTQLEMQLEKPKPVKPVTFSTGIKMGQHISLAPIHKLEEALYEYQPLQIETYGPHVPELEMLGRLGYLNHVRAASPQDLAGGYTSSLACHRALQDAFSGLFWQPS

N[C@@H](CCC(=O)N[C@@H](CS)C(=O)NCC(=O)O)C(=O)O [GSH, glutathione]
THZ1-induced HCV29 cell death with GSH co-treatment [1]: markedly reduced

CCOC(=O)CNC(=O)[C@H](CS)NC(=O)CC[C@H](N)C(=O)O [GSH-MEE, GSH reduced ethyl ester]
cell death / viability of THZ1-treated TSC-null cells with co-treatment [2]: rescued the viability

CC(=O)N[C@@H](CS)C(=O)O [NAC, N-acetyl-cysteine]
cell death / viability of THZ1-treated TSC-null cells with co-treatment [2]: significantly reduced the cell death | ROS levels in THZ1 treated TSC-null cells with antioxidant [3]: restored ROS levels to near baseline

CN(C)C/C=C/C(=O)Nc1ccc(C(=O)N[C@@]2(C)CCC[C@@H](Nc3ncc(Cl)c(-c4c[nH]c5ccccc45)n3)C2)nc1 [SY-1365]
reduction in tumor volume (semi-quantitative, histology) [4]: 99% | selectivity for CDK7 over other CDKs (e.g., CDK9) [5]: high selectivity for CDK7 over other CDKs | IC50 ([5]; read-out: enzymatic IC50): ~22 nM | pharmacokinetic properties [6]: improved pharmacokinetic properties compared to THZ1 | IC50 [7]: ~20 nM

CN(C)C/C=C/C(=O)Nc1ccc(C(=O)Nc2cccc(Nc3ncc(Cl)c(-c4c[nH]c5ccccc45)n3)c2)cc1 [THZ1]
Annexin V+ cells [8]: 2% | Annexin V+ cells [9]: 37% | body weight and apparent toxicities [10]: did not affect body weight or cause other apparent toxicities | body weight and toxicity [11]: No effect on body weight or other evidence of toxicity | IC50 ([12]; read-out: IC50 range, TSC-null cell lines): 16 to 39 nM | IC50 ([12]; read-out: median IC50, TSC-null cell lines): 26.5 nM | GCLC mRNA levels reduction [13]: 82% | GCLM mRNA levels reduction [13]: 68% | GSR mRNA levels reduction [13]: 86% | reduction of tumor volume (semi-quantitative, H&E sections) [14]: about 99% | Glutathione disulfide (GSS) levels reduced [15]: 65% | S-adenosyl-L-homocysteine reduction in levels [15]: 87% | glutathione (GSH) reduction in levels [15]: 78% | ROS levels increase [16]: 2.5 fold | IC50 [17]: ~30 nM | IC50 [18]: ~30 nM | cells arrested in G2/M-phase [19]: 21% | IC50 ([20]; read-out: IC50 range, addback lines): 190 to 660 nM | IC50 ([20]; read-out: median IC50, addback lines): 475 nM | cells arrested in G2/M-phase [21]: 5.5% | reduction in expression of each protein (NRF2, GCLC, GCLM, GSR) [22]: > 90%

CO[C@H]1C[C@@H]2CC[C@@H](C)[C@@](O)(O2)C(=O)C(=O)N2CCCC[C@H]2C(=O)O[C@H]([C@H](C)C[C@@H]2CC[C@@H](O)[C@H](OC)C2)CC(=O)[C@H](C)/C=C(\C)[C@@H](O)[C@@H](OC)C(=O)[C@H](C)C[C@H](C)/C=C/C=C/C=C/1C [rapamycin]
body weight and toxicity [11]: No effect on body weight or other evidence of toxicity | reduction of tumor volume (semi-quantitative, H&E sections) [14]: about 99%
